Data from US20150010474A1, “Compounds And Methods For Selective Imaging And/Or Ablation” (Auckland Uniservices Limited, priority 2011, published 2015).

How the values were obtained:
[1] = test system: human solid tumour xenograft NCI-H1299 (WT); experiment: Hypoxia-dependent binding by fluorescent immunohistochemistry with pimonidazole co-staining; format: in vivo, NIH-III nude mice; details: 60 mg/kg i.p., 60 minutes after 60 mg/kg pimonidazole; tumours excised after 120 minutes
Procedure: FIG. 10 illustrates the absence of hypoxic-dependent binding of compound 67 and compound 93 by fluorescent immune-histochemistry in the human solid tumour xenograft NCI-H1299, with reference to hypoxia staining by compound 15 and pimonidazole (Hypoxyprobe™) as internal standards (positive controls). NCI-H1299 WT tumours were inoculated subcutaneously onto the flank of NIH-Ill nude mice. When the mixed tumours reached approximately 800 mm^3, mice were dosed i.p. with 60 mg/kg of pimonidazole, and 60 minutes later dosed with either 60 mg/kg of compound 15, or 60 mg/kg of compound 67, or 60 mg/kg of compound 93. After 120 minutes the tumours were excised, and fixed in formalin before being embedded in paraffin wax. Tumour section were cut (5 microns) and mounted onto glass slides for immunodetection of bound adducts of compounds. Immunofluorescent microscopy was performed using a monoclonal antibody (Mab1, hybridoma clone 4.3.11.3) conjugated to Alexa-488 (Ex/Em 499/519; green) for the detection of pimonidazole adducts, and monoclonal antibody ELK3-51 directly conjugated to the fluorophore CY5 (Ex/Em 650/670 nm; red) for detection of adducts formed by compound 15 or compound 67 or compound 93. The overlap of pimonidazole with any one of these markers appears as yellow. Images were acquired on a Zeiss LSM 710 confocal microscope (×20 magnification).

[2] = test system: HCT-116 cells stably expressing E. coli NfsA; experiment: Flow cytometry of metabolism and cellular retention (EF5 antibody); format: cell-based, human; details: 20 μM; for Metabolism and cellular retention by FACS, HCT-116 NfsA cells (FIG. 3): 2 hours, oxic conditions (21% O2, 5% CO2)
Procedure: FIG. 3 illustrates the results of flow cytometry analysis of HCT-116 cells stably expressing E. coli NfsA relative to HCT-116 wild-type cells after in vitro exposure to 20 μM of compounds 15, 93 and 67 for 2 hours. 1×10^6 cells were incubated with test compounds under oxic conditions. Samples were fixed and stained with EF5 antibody Alexa 488 ELK3.51 at 100 μg/ml. Samples were then analysed on a Becton Dickinson FACscan flow cytometer.
FIG. 4 illustrates the results of a second independent flow cytometry analysis of compound 15 and 93 metabolism and binding in wild-type HCT-116 cells, HCT-116 cells stably over-expressing cytochrome P450 reductase (CYPOR), a human one-electron reductase known to metabolise nitroheterocyclic and nitroaromatic compounds, or HCT-116 cells stably expressing the bacterial nitroreductase E. coli NfsA. 1×10^6HCT-116 cells were seeded in 6 well plates underaerobic conditions (21% O2, 5% CO2). After 2 h incubation, drug free control (wild-type HCT-116, foreground), 20 μM (wild-type HCT-116, second plot), 100 μM (wild-type HCT-116, third plot), 20 μM (HCT-116-CYPOR, forth plot), 100 μM (HCT-116-CYPOR, fifth plot) or 20 μM (HCT-116-NfsA, sixth plot) of compound 15 or 93 was added. After 2 h incubation cells were harvested and fixed with paraformaldehyde before being incubated overnight with 100 μl of 75 μg/ml EF5 CY5 conjugated antibody. Samples were then analysed on a Becton Dickinson FACscan flow cytometer.

[3] = One-electron reduction potential E(1) by pulse radiolysis; format: physicochemical; details: determined against methylviologen, E(1)MV2+/MV+. = −447 ± 7 mV
From the text: The E(1) values of many compounds can be obtained from the literature, (for example, Wardman, P. J. Phys. Chem. Ref. Data, 1989, 18, 1637-1755.) or determined by a number of methods. The pulse radiolysis method, for example, measures the equilibrium constant between the radical anions of the nitroheterocyclic or nitroaromatic compound, formed upon their 1-electron reduction, and reference standards such as viologen and quinone compounds, from which data the E(1) values of the compounds can be calculated. (Meisel and Czapski. J. Phys. Chem., 1975, 79, 1503-1509.)
(Anderson et al, J. Phys. Chem. A, 101, 9704-9709, 1997).

[4] = test system: HCT116 cells overexpressing the nitroreductase NfsA from E. coli; experiment: Inhibition of cell proliferation, low cell density IC50 assay; format: cell-based, human; details: for IC50: Homo sapiens, HCT-116, 4 hour drug exposure, washing and regrowth for 5 days; for WT:NfsA: WT IC50/NfsA IC50
Procedure: IC50 values were determined as the concentration of prodrug required to inhibit cell growth by 50% of untreated controls following 4 hour drug exposure, with washing and regrowth for 5 days. WT:NfsA ratios were determined as the WT IC50/NfsA IC50.

[5] = test system: E. coli SOS (DNA damage repair) response; experiment: SOS assay (β-galactosidase activity) in NTR over-expression library; format: cell-based, Escherichia coli; details: 4 h challenge with 8 μM compound 67
Procedure: FIG. 2 illustrates the metabolism of compound 67 by members of the 58-membered NTR over-expression library as measured by (A) Growth Inhibition assay and (B) SOS assay. (A) Growth Inhibition assay. Turbidity (OD600) of NTR over-expressing cell cultures was recorded directly before and after 4 h incubation with 400 μM compound 67. Percentage Growth Inhibition represents the decrease in OD600 of challenged cells relative to unchallenged control cells for each strain post-incubation (i.e. 100−[100×OD600 of challenged cells/OD600 of unchallenged cells]). Data are the average of 2 independent assays and the error bars indicate ±1 standard deviation. Labelled bars indicate the NfsA and NfsB family members within the NTR library. (B) SOS assay. […] The data presented is the SOS response, measured by β-galactosidase activity (in Miller units), of NTR over-expressing E. coli SOS-R2 after 4 h challenge with 8 μM compound 67. Full details of assay protocol and calculations are as described in G A Prosser, J N Copp, S P Syddall, E M Williams, J B Smaill, W R Wilson, A V Patterson and D F Ackerley. 2010. Discovery and evaluation of Escherichia coli nitroreductases that activate the anti-cancer prodrug CB1954. Biochemical Pharmacology 79: 678-687. Data are the average of 2 independent assays and the error bars indicate ±1 standard deviation. […]

[6] = biological target: T1, NfsB (E.c) (Escherichia coli, UniProt P38489); experiment: Initial rate of metabolism by purified recombinant bacterial nitroreductase (NADPH consumption, UV/Vis); format: biochemical; details: compound 500 μM, NADPH 200 μM, 10 mM Tris-Cl pH 7.0; μmol NADPH consumed per mg enzyme per minute
T1 construct: made in house
Procedure: The relative initial rates of reductive metabolism of the nitro moiety of test compounds by bacterial nitroreductase's can be measured experimentally by incubating the test compound at near-saturating concentration (determined empirically) with the purified recombinant bacterial nitroreductase enzymes in the presence of NADPH co-factor. UV/Vis spectroscopy is used to measure consumption of the co-factor, indicating metabolism of the test compound by the nitroreductase.
Compounds 67, 93 and 97 (500 μM) were added to NADPH (200 μM) in 10 mM Tris-Cl pH 7.0. Reactions were initiated by enzyme addition (between 5 and 20 μg per reaction). Rates represent μmol of NADPH consumed per mg enzyme added per minute.

T1 sequence (P38489 whole entry): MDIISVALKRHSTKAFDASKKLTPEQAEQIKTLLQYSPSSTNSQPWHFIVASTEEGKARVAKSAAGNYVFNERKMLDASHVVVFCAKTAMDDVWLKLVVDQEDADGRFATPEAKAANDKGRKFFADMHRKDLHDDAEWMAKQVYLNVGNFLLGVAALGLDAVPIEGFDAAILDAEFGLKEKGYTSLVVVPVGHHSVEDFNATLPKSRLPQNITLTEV

Row | Compound | Hypoxia-dependent binding in NCI-H1299 WT tumours, immunofluorescent microscopy (FIG. 10) [1] | Metabolism and cellular retention by FACS, HCT-116 NfsA cells (FIG. 3) [2] | E(1)/V [3] [V] | IC50 [4] [µM] | WT:NfsA [4] | SOS response upon activation [5] | Metabolism and cellular retention by FACS, HCT-116 NfsA cells (FIG. 4) ([2]; 2 h, aerobic conditions) | Rate of metabolism by NfsB (E.c) [6] [µmol/min/mg]
1 | Cc1ncc([N+](=O)[O-])n1CC(=O)NCC(F)(F)C(F)(F)F [Compound 67, 2-(2-methyl-5-nitro-1H-imidazol-1-yl)-N-(2,2,3,3,3-pentafluoropropyl)acetamide] | not detected in the pimonidazole positive hypoxic regions of the NCI-H1299 tumours | excellent substrates for E. coli NfsA | −0.501 | 19 | 332 | demonstrates an ability to evoke the E. coli SOS (DNA damage repair) response upon activation |  | 
2 | O=C(Cn1cnc([N+](=O)[O-])c1)NCC(F)(F)C(F)(F)F [Compound 93, 2-(4-nitro-1H-imidazol-1-yl)-N-(2,2,3,3,3-pentafluoropropyl)acetamide] | not detected in the pimonidazole positive hypoxic regions of the NCI-H1299 tumours | excellent substrates for E. coli NfsA | −0.578 | 14.5 | 100 |  | excellent substrates for E. coli NfsA | 0.82
